Results on 7 molecules are retold here after patent US8487095B2, “Acid addition salts, hydrates and polymorphs of 5-(2,4-dihydroxy-5-iso-propyl-phenyl)-4-(4-morpholin-4-ylmethyl-phenyl)-isoxazole-3-carboxylic acid ethylamide and formulations comprising these forms” (priority 2007, dated 2013).

The conditions of data set [1]: cited from earlier work.
For data set [2] the following is noted: clinical, humans; cited from earlier work.
Data set [3] can be described thus: Hygroscopicity by Dynamic Water Sorption (DVS). Conditions: 25° C.; for found to be hygroscopic: DVS, 'Neither' = not hygroscopic. The format is physicochemical. On the procedure:
Hygroscopicity is measured using a Dynamic Water Sorption (DVS) apparatus. Measurements are performed at 25° C. using about 8-10 mg of substance. The r.h. is changed in steps of 10% r.h. as follows: 40-0-95-0-40% r.h. The minimum stage time is 60 min, the maximum 180 min, if the change in mass of 10 min is less than 0.002%/min, the r.h. is changed to the next step.

Data set [4] can be described thus: Solubility of the free base and its salts (description). The format is physicochemical.
The nature of data set [5]: Equilibration in suspension (polymorphism). The format is physicochemical. Conditions: over a range of applied conditions. From the text:
Lack of polymorphism is a beneficial property for a solid form designated to be developed as a medicament.

The nature of another data set: Light sensitivity. To be noted: as solid as well as in solution. The format is physicochemical.
The nature of data set [6]: Stress tests in solution or suspensions, 4 weeks at 50° C. (Example 8). Format: physicochemical. As for the experimental part: The stability of the AUY922 mesylate salt in different aqueous media were determined under stress conditions (4 weeks at 50° C.) and the following appearance/content recovery/sum of by- and degradation products were found: […]
Data set [7] is described as follows: pH and autoclavation of the 4.8-5.2 mg/ml aqueous mesylate solution. Format: physicochemical. As for the experimental part: Preferably, the formulation comprises between around 4.8 and 5.2 mg/ml solution, more preferably 5.0 mg/ml solution, of 5-(2,4-dihydroxy-5-isopropyl-phenyl)-4-(4-morpholin-4-ylmethyl-phenyl)-isoxazole-3-carboxylic acid ethylamide mesylate. The pH of such a solution is around 4.2 and therefore at the stability maximum of the mesylate salt. This surprising finding renders the solution particularly suitable for pharmaceutical use. In particular, it allows to use the solution without any other excipients, such as buffers, for stabilizing the drug substance.

The nature of data set [8]: Solubility of the mesylate salt in different aqueous media (Example 7). Format: physicochemical. As for the experimental part:
The solubility of the 5-(2,4-dihydroxy-5-isopropyl-phenyl)-4-(4-morpholin-4-ylmethyl-phenyl)-isoxazole-3-carboxylic acid ethylamide (AUY922) mesylate salt in different aqueous media were determined and found to be as follows: […]

A short description of data set [9]: Stability and crystal formation of aqueous mesylate solutions on storage. Format: physicochemical. An excerpt:
The expression “free of any other salts” as used herein means that neither any salts derived from inorganic or organic acids, such as sodium chloride, as isotonic agent nor any buffer salts are present.
In one embodiment, the formulation consists of the mesylate salt of an isotonic aqueous solution of 5-(2,4-dihydroxy-5-isopropyl-phenyl)-4-(4-morpholin-4-ylmethyl-phenyl)-isoxazole-3-carboxylic acid ethylamide and 5% w/w of glucose or mannitol. […] Furthermore, the pH of such a solution prevents Maillard reactions during autoclavation of the 5% glucose solution which would lead to discoloration at neutral pH.

The mark [10] stands for this setting: water, read-out: solubility in water.
Setting [11] is: buffer pH 6.0 (phosphate buffer).
[12] abbreviates: buffer pH 6.8 (phosphate buffer).

Structures can show the parent of a compound that is named as a salt. Where two headings read alike, the source gives them in different places. Some results are limits rather than exact numbers.

The solubility is how much of the substance goes into solution per volume. In the case of `C=CCNC1=C2C[C@@H](C)C[C@H](OC)[C@H](O)[C@@H](C)/C=C(\C)[C@H](OC(N)=O)[C@@H](OC)/C=C\C=C(/C)C(=O)NC(=CC1=O)C2=O` [Example 17-AAG, 17-allylamino-17-demethoxy-geldanamycin], in data set [1], the solubility result is “poor solubility”. In addition, the dose limiting toxicity entry in data set [2] is “hepatic toxicity”.

In the case of `CCNC(=O)c1noc(-c2cc(C(C)C)c(O)cc2O)c1-c1ccc(CN2CCOCC2)cc1` [free base, 5-(2,4-Dihydroxy-5-isopropyl-phenyl)-4-(4-morpholin-4-ylmethyl-phenyl)-isoxazole-3-carboxylic acid ethylamide], the “maximum uptake of water” value in data set [3] (80% relative humidity) is 1.8%. For the same molecule, in [3], the “found to be hygroscopic” value is on record as “slightly hygroscopic”. For the same molecule, in data set [4], the “solubility in 0.1 N HCl” value was in the range of 1000 to 2500 µg/mL. For the same molecule, the solubility in water entry in data set [4] (water) was “less than 0.1 mg/ml”.

As for `CCNC(=O)c1noc(-c2cc(C(C)C)c(O)cc2O)c1-c1ccc(CN2CCOCC2)cc1` [hydrochloride salt, 5-(2,4-Dihydroxy-5-isopropyl-phenyl)-4-(4-morpholin-4-ylmethyl-phenyl)-isoxazole-3-carboxylic acid ethylamide hydrochloric acid salt], the “found to be hygroscopic” value in [3] is “Neither”. For the same molecule, in data set [5], the “change of crystalline form by equilibration in suspension” value was “did not change”. In addition, in [4], the “solubility in 0.1 N HCl” value is recorded as “less than 1 mg/ml”. The “solubility at pH 5” value in data set [4] (pH 5) is recorded as 1-2.5 mg/ml. For the same molecule, the solubility in water in [4] (water) lay within 2500 to 5000 µg/mL.

`CCNC(=O)c1noc(-c2cc(C(C)C)c(O)cc2O)c1-c1ccc(CN2CCOCC2)cc1.O=P(O)(O)O` [phosphate salt, 5-(2,4-dihydroxy-5-isopropyl-phenyl)-4-(4-morpholin-4-ylmethyl-phenyl)-isoxazole-3-carboxylic acid ethylamide phosphate]: the solubility in data set [4] (setting [10]) was in the range of 500 to 1000 µg/mL.

On to “5-(2,4-dihydroxy-5-isopropyl-phenyl)-4-(4-morpholin-4-ylmethyl-phenyl)-isoxazole-3-carboxylic acid ethylamide hemi fumarate [hemi fumarate salt]”, for which the solubility in water in data set [4] (water) fell in the range of 100 to 250 µg/mL.

`CCNC(=O)c1noc(-c2cc(C(C)C)c(O)cc2O)c1-c1ccc(CN2CCOCC2)cc1` [mesylate salt, 5-(2,4-Dihydroxy-5-isopropyl-phenyl)-4-(4-morpholin-4-ylmethyl-phenyl)-isoxazole-3-carboxylic acid ethylamide mesylate]: the light sensitivity result in “Light sensitivity” is reported as “light sensitive”. The “found to be hygroscopic” value in data set [3] (mesylate) is on record as “Neither”. For the same molecule, the appearance result in data set [6] (0.9% NaCl), in data set [6] (5% glucose solution), in [6] (Water), in data set [6] (buffer pH1.0 (HCl)), in data set [6] (buffer pH2.0 (citrate buffer)) and in [6] (buffer pH3.0 (citrate buffer)) was “colorless solution” each time. Further, the appearance entry in [6] (buffer pH 4.0 (acetate buffer)) is reported as “colorless solution”; in data set [6] (buffer pH 5.0 (acetate buffer)), “colorless solution”; in data set [6] (setting [11]) it was “colorless suspension”; in [6] (setting [12]), “colorless suspension”; in [6] (buffer pH8.0 (borate buffer)), “colorless suspension”. Besides, the “sum of by- and degradation products” value in [6] (0.9% NaCl) was 0.34%; in data set [6] (5% glucose solution), 0.34%; in data set [6] (Water), 0.32%; in data set [6] (buffer pH1.0 (HCl)), 2.83%; in data set [6] (buffer pH2.0 (citrate buffer)), 0.58%; in data set [6] (buffer pH3.0 (citrate buffer)) it was 0.47%. The “sum of by- and degradation products” value in [6] (buffer pH 4.0 (acetate buffer)) is on record as 0.36%; in [6] (buffer pH 5.0 (acetate buffer)) it was 0.50%; in data set [6] (setting [11]) it was 0.49%; in [6] (setting [12]), 0.79%; in [6] (buffer pH8.0 (borate buffer)) it was 0.26%. Besides, in data set [6] (stress conditions), the “pH of stability maximum” value is on record as 4. The “pH of the solution” value in data set [7] (aqueous solution, around 4.8 to 5.2 mg/ml mesylate) is “around 4.2”. Moreover, the stability to autoclavation entry in data set [7] (solution of around 4.8 to 5.2 mg/ml, about 120° C., 20 to 40 minutes, around 2 bar) was “without causing any color changes or degradation products”. Besides, the solubility came to 12800 µg/mL in data set [8] (0.9% NaCl solution, saline or isotonic, thermodynamic from solid); 39000 µg/mL in data set [8] (5% glucose solution, saline or isotonic, thermodynamic from solid); 39000 µg/mL in [8] (5% mannitol solution, saline or isotonic, thermodynamic from solid); 14600 µg/mL in data set [8] (aqueous buffer, thermodynamic from solid, buffer pH 4.0 (acetate buffer)); 3200 µg/mL in data set [8] (aqueous buffer, thermodynamic from solid, buffer pH 5.0 (acetate buffer)); 600 µg/mL in [8] (aqueous buffer, thermodynamic from solid, buffer pH 6.0 (phosphate buffer)). The solubility was 700 µg/mL in [8] (aqueous buffer, thermodynamic from solid, buffer pH 7.0 (phosphate buffer)); 1800 µg/mL in data set [8] (aqueous buffer, thermodynamic from solid, buffer pH 8.0 (borate buffer)); 37500 µg/mL in data set [8] (pH 3.6, thermodynamic from solid, Water (pH of the saturated solution=3.6)); 35600 µg/mL in data set [8] (saline or isotonic, thermodynamic from solid, 5% glucose solution pH 4); 37500 µg/mL in data set [8] (saline or isotonic, thermodynamic from solid, 5% glucose solution pH 7); 1000 to 2500 µg/mL in data set [4] (pH 5, aqueous buffer, pH 5, read-out: solubility at pH 5). In data set [4] (water, pH 4, water, water at pH 4, read-out: solubility in water at pH 4), the solubility was 33500 µg/mL. The “crystal formation in solution” value in data set [9] (in the presence of other salts (e.g. sodium chloride, buffer salts)) is “crystals are formed sooner or later”. Besides, the “chemical stability in formulation” value in data set [9] (isotonic aqueous solution with 5% w/w of glucose or mannitol) is “chemically stable”. Besides, in data set [9] (isotonic aqueous solution with 5% w/w of glucose or mannitol, longer storage time, e.g. several months), the “crystal formation on storage” value was “crystal formation can be avoided”. In addition, the “solubility compared with the free base (and other salts)” value in data set [4] was “superior”. In addition, the “solubility in 0.1 N HCl” value in data set [4] (mesylate) is 10000 to 20000 µg/mL.

As to `CCNC(=O)c1noc(-c2cc(C(C)C)c(O)cc2O)c1-c1ccc(CN2CCOCC2)cc1.O=C(O)C(O)C(O)C(=O)O` [tartrate salt, 5-(2,4-dihydroxy-5-isopropyl-phenyl)-4-(4-morpholin-4-ylmethyl-phenyl)-isoxazole-3-carboxylic acid ethylamide tartrate], the solubility in data set [4] (setting [10]) is more than 2000 µg/mL.
